Laboratory results as given in patent publication US9115151B2, “Substituted 2,10-dihydro-9-oxa-1,2,4A-triazaphenanthren-3-ones and uses thereof” (AbbVie Inc., priority 2012, dated 2015).
pEC50, pIC50: −log10 of the molar value. Counter-ions that a name gives are not always drawn. Like-named read-outs stand apart in the source and are kept apart here.

Key:
PKCα = molecular target: T1, PKCα (Homo sapiens, UniProt P17252); assay: In vitro enzyme assay (time-resolved fluorescence kinase assay), PKCα, 100 μM ATP; format: biochemical
T1 construct: His6; purchased Millipore; host or cells: baculovirus in Sf21 cells
Experimental: (§1) PKC kinase activity was assayed by time-resolved fluorescence in vitro kinase assay. Unless otherwise indicated, all reagents used for enzyme assays were obtained from Sigma. Specifically, 5 μL N- or C-terminal His6-tagged, recombinant, human PKC, expressed by baculovirus in Sf21 cells (Millipore) was mixed with 5 μL inhibitor (various concentrations, 5% final DMSO), 5 μL Bio-cdc peptide (Biotin-Ahx-[…], 2 μM final concentration, New England Peptide) and 5 μL of ATP (100 μM or 1000 μM final concentration) in 1× reaction buffer, 20 μL final volume.
(§2) Following a sixty minute incubation at room temperature, the reaction was quenched with 5 μL of 0.5 M EDTA pH 7.5.
(§3) Background counts from a minus enzyme control is subtracted from all data. Data (after background correction) are converted to percent activity by dividing by the signal obtained from PKC without drug sample.

[1] = system: CD3/CD28 induced IL-2 in human T-Blasts; assay: T-Blasts CD3/CD28 induced IL-2 assay; format: cell-based; details: read-out: CD3/CD28-stimulated IL2 in T-blasts EC50
Experimental: T-Blasts CD3/CD28 Induced IL-2 Assay
Human T-Blasts are generated using PHA following standard protocols. T-Blasts are freeze aliquoted and vials thawed as required. […] Seed 2×10^5/100 μL cell suspension per well in flat bottomed 96 well plate. Compound dilutions are prepared from 100% DMSO stocks. A total of 8 serial dilutions are made (1/3 in 100% DMSO). Compounds are diluted 1/50 in growth medium to prepare 4× stocks of each tested concentration. 50 μL from each 4× stock concentration is added to the 100 μL cell suspension and incubated for 30 minutes prior stimulus addition. A 4× stimulus stock is prepared using anti-CD3+anti-CD28 antibodies. Antibody mix is added to the cell/compounds suspension in 50 μL at 5 μg/mL final concentration. Compounds are tested in duplicates. Plates are transferred to 37° C./CO2 incubator for 24 hours. After incubation 130 μL of supernatant is collected for IL-2 determination while MTT toxicity analysis is performed on remaining cells/medium.

PKCθ = molecular target: T2, PKCθ (Homo sapiens, UniProt Q04759); assay: In vitro enzyme assay (time-resolved fluorescence kinase assay), PKCθ, 100 μM ATP; format: biochemical
T2 construct: His6; purchased Millipore; host or cells: baculovirus in Sf21 cells
Experimental: as §1, §2, §3

[2] = 100 μM ATP, read-out: PKCα enzyme IC50

T2 sequence (Q04759 whole entry): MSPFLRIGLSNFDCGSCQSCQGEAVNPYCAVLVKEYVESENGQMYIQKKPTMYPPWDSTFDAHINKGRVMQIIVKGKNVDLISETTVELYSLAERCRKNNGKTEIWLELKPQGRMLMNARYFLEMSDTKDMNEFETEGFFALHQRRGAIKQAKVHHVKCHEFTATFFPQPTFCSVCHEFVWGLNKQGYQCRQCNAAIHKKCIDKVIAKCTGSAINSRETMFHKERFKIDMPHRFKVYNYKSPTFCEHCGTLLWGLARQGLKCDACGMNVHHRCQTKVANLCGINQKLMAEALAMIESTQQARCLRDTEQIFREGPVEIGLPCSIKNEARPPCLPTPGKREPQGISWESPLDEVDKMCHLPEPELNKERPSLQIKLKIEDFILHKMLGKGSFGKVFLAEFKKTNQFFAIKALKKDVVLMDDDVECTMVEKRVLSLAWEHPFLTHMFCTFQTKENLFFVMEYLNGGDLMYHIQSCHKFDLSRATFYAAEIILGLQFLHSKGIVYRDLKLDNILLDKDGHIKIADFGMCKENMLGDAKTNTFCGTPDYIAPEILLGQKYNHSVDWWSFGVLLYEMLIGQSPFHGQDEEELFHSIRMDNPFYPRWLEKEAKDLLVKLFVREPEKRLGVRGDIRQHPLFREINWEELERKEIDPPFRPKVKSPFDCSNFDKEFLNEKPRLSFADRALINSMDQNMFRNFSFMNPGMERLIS

| SMILES | pIC50 (PKCα; [2]) | pEC50 [1] | pIC50 (PKCθ) | pIC50 (PKCα) |
| --- | --- | --- | --- | --- |
| C[C@@H]1C(=O)NN=C2COc3cc(C(F)(F)F)c(NC4CNC4)cc3N21 (single isomer, unassigned) [Example 53-2, trifluoroacetic acid] | 5.00 to 6.00 | > 6.60 |  |  |
| Cc1ccccc1-c1cc2c(cc1N(C)C1(C)CN(C)C1)N1C(=NNC(=O)C1C)CO2 (stereo not drawn) [Example 88] | > 6.60 | > 6.60 | > 6.60 |  |
| C[C@H]1C(=O)NN=C2COc3cc(-c4ccccc4F)c(N(C)[C@]4(C)CCN(C)C4)cc3N21 (single isomer, unassigned) [Example 198-2] | 5.00 to 6.00 | 5.00 to 6.00 | > 6.60 |  |
| CC1C(=O)NN=C2COc3cc(C(F)(F)F)c(NC4(C)CNC4)cc3N21 (stereo not drawn) [Example 81, 4-Methyl-6-(3-methyl-azetidin-3-ylamino)-7-trifluoromethyl-2,10-dihydro-9-oxa-1,2,4a-triaza-phenanthren-3-one] | 5.00 to 6.00 | 6.00 to 6.60 |  |  |
| CC1C(=O)NN=C2COc3cc(-c4ccc(C#N)cc4)c(NC4CNC4)cc3N21 (racemic) [Example 41] | 5.00 to 6.00 | 6.00 to 6.60 | 6.00 to 6.60 |  |
| C[C@@H]1CN(C)[C@@H](C)CN1c1cc2c(cc1-c1ccccc1F)OCC1=NNC(=O)[C@@H](C)N12 [Example 246, (R)-7-(2-Fluoro-phenyl)-4-methyl-6-((2R,5S)-2,4,5-trimethyl-piperazin-1-yl)-2,10-dihydro-9-oxa-1,2,4a-triaza-phenanthren-3-one] | 6.00 to 6.60 | > 6.60 | > 6.60 |  |
| COc1ccc2cc(-c3cc4c(cc3NC3CNC3)N3C(=NNC(=O)C3C)CO4)ccc2c1 (racemic) [Example 35] | 5.00 to 6.00 | > 6.60 | > 6.60 |  |
| COCCN1CC(C)(N(C)c2cc3c(cc2-c2ccccc2F)OCC2=NNC(=O)[C@@H](C)N23)C1 [Example 192] | 6.00 to 6.60 | > 6.60 | > 6.60 |  |
| C[C@@H]1C(=O)NN=C2COc3cc(-c4ccccc4F)c(N4CCN[C@@H](C)C4)cc3N21 [Example 225] | 6.00 to 6.60 | > 6.60 | > 6.60 |  |
| C[C@@H]1C(=O)NN=C2COc3cc(-c4ccccc4F)c(N4CCNCC4)cc3N21 [Example 222, (R)-7-(2-Fluoro-phenyl)-4-methyl-6-piperazin-1-yl-2,10-dihydro-9-oxa-1,2,4a-triaza-phenanthren-3-one] | 5.00 to 6.00 | 6.00 to 6.60 | > 6.60 |  |
| CC1C(=O)NN=C2COc3cc(-c4cccc(OC(F)(F)F)c4)c(NC4CNC4)cc3N21 (racemic) [Example 16] | 5.00 to 6.00 | > 6.60 | 6.00 to 6.60 |  |
| CC1C(=O)NN=C2COc3cc4ccn(C5CNC5)c4cc3N21 (stereo not drawn) [Example 103, 10-(Azetidin-3-yl)-1-methyl-5,10-dihydro-1H-[1,2,4]triazino[4′,3′:4,5][1,4]oxazino[2,3-f]indol-2(3H)-one trifluoroacetic acid] | 5.00 to 6.00 | 6.00 to 6.60 | > 6.60 |  |
| [2H]c1cn(C2(C)CNC2)c2cc3c(cc12)OCC1=NNC(=O)C(C)N13 (stereo not drawn) [Example 149, 8-Deuterated-1-methyl-10-(3-methyl-azetidin-3-yl)-3,5-dihydro-10H-6-oxa-3,4,10,11b-tetraaza-cyclopenta[b]phenanthren-2-one hydrochloride] | 5.00 to 6.00 | > 6.60 | > 6.60 |  |
| CC(C)c1cc2c(cc1[C@@H](C)C1(C)CNC1)N1C(=NNC(=O)[C@H]1C)CO2 [Example 133, (R)-7-Isopropyl-4-methyl-6-[(R)-1-(3-methyl-azetidin-3-yl)-ethyl]-2,10-dihydro-9-oxa-1,2,4a-triaza-phenanthren-3-one hydrochloric acid] | 5.00 to 6.00 | 6.00 to 6.60 | 6.00 to 6.60 |  |
| C[C@@H]1C(=O)NN=C2COc3cc(-c4ccccc4F)c(N(C)C4(C)CN(C(=O)CN(C)C)C4)cc3N21 [Example 187] | 5.00 to 6.00 | 6.00 to 6.60 | > 6.60 |  |
| C[C@@H]1C(=O)NN=C2COc3cc(-c4ccccc4CCO)c(N(C)C4(C)CN(C)C4)cc3N21 [Example 180] | 5.00 to 6.00 | > 6.60 | > 6.60 |  |
| C[C@@H]1C(=O)NN=C2COc3cc(C4=CCC(F)(F)CC4)c(N(C)C4(C)CN(C)C4)cc3N21 [Example 182] | 5.00 to 6.00 | 6.00 to 6.60 | > 6.60 |  |
| CC1C(=O)NN=C2COc3cc(-c4ccccc4F)c(NC4CNC4)cc3N21 (racemic) [Example 42] | 5.00 to 6.00 | > 6.60 | > 6.60 |  |

| SMILES | pIC50 (PKCα; [2]) | pEC50 [1] | pIC50 (PKCθ) | pIC50 (PKCα) |
| --- | --- | --- | --- | --- |
| CCC1(n2ccc3cc4c(cc32)N2C(=NNC(=O)[C@H]2C)CO4)CNC1 [Example 150] | 5.00 to 6.00 | 6.00 to 6.60 | > 6.60 |  |
| C[C@@H]1C(=O)NN=C2COc3cc(C(F)(F)F)c(NC4(C)CNC4)cc3N21 (single isomer, unassigned) [Example 100-1, trifluoroacetic acid] | 5.00 to 6.00 | > 6.60 |  |  |
| C[C@@H]1C(=O)NN=C2COc3cc(-c4ccc(F)cc4)c(NC4CNC4)cc3N21 [Example 9] | 5.00 to 6.00 | > 6.60 | > 6.60 |  |
| CC1C(=O)NN=C2COc3ccc(C4CCNCC4)cc3N21 (stereo not drawn) [Example 71, 4-Methyl-6-piperidin-4-yl-2,10-dihydro-9-oxa-1,2,4a-triaza-phenanthren-3-one trifluoroacetic acid] | 5.00 to 6.00 | > 6.60 | > 6.60 |  |
| C[C@@H]1C(=O)NN=C2COc3cc(-c4ccccc4F)c([C@@H](C)C4(C)CN(CCO)C4)cc3N21 [Example 141] | 6.00 to 6.60 | > 6.60 | > 6.60 |  |
| Cc1ccc(-c2cc3c(cc2[C@@H]2CCN(C)C[C@@H]2C)N2C(=NNC(=O)[C@H]2C)CO3)c(F)c1 [Example 200] | > 6.60 | > 6.60 |  |  |
| C[C@H]1C(=O)NN=C2COc3cc(C(F)(F)F)c(NC4CNC4)cc3N21 (single isomer, unassigned) [Example 53-1, trifluoroacetic acid] | 5.00 to 6.00 | 6.00 to 6.60 |  |  |
| COc1ccc(F)c(-c2cc3c(cc2[C@@H]2CCN(C)C[C@@H]2C)N2C(=NNC(=O)[C@H]2C)CO3)c1 [Example 241] |  | > 6.60 | > 6.60 |  |
| C[C@@H]1C(=O)NN=C2COc3cc(C(F)(F)F)c([C@H](C)C4(C)CNC4)cc3N21 (single isomer, unassigned) [Example 147-2, trifluoroacetic acid] | 5.00 to 6.00 |  | 5.00 to 6.00 |  |
| C[C@H]1C(=O)NN=C2COc3cc4ccn([C@]5(C)CCNC5)c4cc3N21 [Example 165, (S)-1-Methyl-10-((R)-3-methyl-pyrrolidin-3-yl)-3,5-dihydro-10H-6-oxa-3,4,10,11b-tetraaza-cyclopenta[b]phenanthren-2-one] | 5.00 to 6.00 |  | 6.00 to 6.60 |  |
| C[C@H]1C(=O)NN=C2COc3cc(C(F)(F)F)c(NC4(C)CNC4)cc3N21 [Example 100-2, (S)-1-Methyl-9-((3-methylazetidin-3-yl)amino)-8-(trifluoromethyl)-3,5-dihydrobenzo[5,6][1,4]oxazino[3,4-c][1,2,4]triazin-2(1H)-one trifluoacetic acid salt] | 6.00 to 6.60 | 6.00 to 6.60 |  |  |
| C[C@@H]1C(=O)NN=C2COc3cc(-c4c(F)cccc4F)c([C@@H]4CCN(C)C[C@@H]4C)cc3N21 [Example 245, (R)-7-(2,6-Difluoro-phenyl)-6-((3R,4R)-1,3-dimethyl-piperidin-4-yl)-4-methyl-2,10-dihydro-9-oxa-1,2,4a-triaza-phenanthren-3-one] | 6.00 to 6.60 | > 6.60 |  |  |
| COc1cccc(-c2cc3c(cc2[C@@H]2CCN(C)C[C@@H]2C)N2C(=NNC(=O)[C@H]2C)CO3)c1F [Example 237, (R)-6-((3R,4R)-1,3-Dimethyl-piperidin-4-yl)-7-(2-fluoro-3-methoxy-phenyl)-4-methyl-2,10-dihydro-9-oxa-1,2,4a-triaza-phenanthren-3-one] |  | > 6.60 | > 6.60 |  |
| CC1C(=O)NN=C2COc3cc(-c4ccccc4F)c(N4CC5CCC4CN5)cc3N21 (stereo not drawn) [Example 229] | 5.00 to 6.00 |  | 6.00 to 6.60 |  |
| Cc1cc2c(cc1NC1(C)CNC1)N1C(=NNC(=O)C1C)CO2 (stereo not drawn) [Example 98, 4,7-Dimethyl-6-(3-methyl-azetidin-3-ylamino)-2,10-dihydro-9-oxa-1,2,4a-triaza-phenanthren-3-one trifluoroacetic acid] | 5.00 to 6.00 |  | 5.00 to 6.00 |  |
| CC1NCC1Nc1ccc2c(c1)N1C(=NNC(=O)C1C)CO2 (stereo not drawn) [Example 118, 4-Methyl-6-(2-methyl-azetidin-3-ylamino)-2,10-dihydro-9-oxa-1,2,4a-triaza-phenanthren-3-one trifluoroacetic acid] | 5.00 to 6.00 |  | 6.00 to 6.60 |  |
| COc1ccc(-c2cc3c(cc2[C@@H]2CCN(C)C[C@@H]2C)N2C(=NNC(=O)[C@H]2C)CO3)c(F)c1 [Example 201] |  | > 6.60 |  | > 6.60 |
